Measurements as given in US10189809B2, “SGC stimulators” (Ironwood Pharmaceuticals, Inc., priority 2010, dated 2019).
Like-named read-outs stand apart in the source and are kept apart here.

Experiments:
[1] = biological target: Human soluble guanylate cyclase enzyme (hsGC) (Homo sapiens (Human), UniProt Q02108+Q02153); assay: Purified human sGC enzyme activity assay; format: biochemical; details: for sGC Enzyme (specific activity at 10 μM) / sGC Enzyme (fold increase at 10 μM without SNP): 10 μM compound; for sGC Enzyme (specific activity at 30 μM) / sGC Enzyme (fold increase at 30 μM without SNP): 30 μM compound
Experimental: Human soluble guanylate cyclase enzyme (hsGC) obtained from Enzo Inc. (P/N: ALX-201-177) was used to evaluate the activity of test compounds. The assay reactions contained 0.1 M Tris (pH 8.0), 0.5 mg/mL BSA (pH 8.0), 2 mM DTT, 2 mM MgCl2, 300 μM GTP, 1 mM 3-isobutyl-1-methylxanthine (IBMX) and 5 ng human soluble guanylate cyclase enzyme. Test compounds in DMSO were then added (2 μL, 10 or 30 μM final concentration) and incubated (200 μL, 96-well plate format) at 37° C. for 30 minutes. The controls were carried out using 2 μL DMSO. After the 30 minute incubation, the reaction was stopped with the addition of 200 μL of cold methanol. The plate was then centrifuged at 3,200 rpm for 10 minutes at room temperature. Supernatants (200 μL) were collected and transferred to a new 96 well plate for analysis.
An 8 point cGMP (Sigma-Aldrich P/N: G6129) standard curve was prepared in assay buffer ranging from 0.156-20 μM. Samples for the cGMP standard curve were then diluted with an equal volume of methanol resulting in final cGMP concentrations of 0.078-10 μM.
The cGMP standard curve was generated using GraphPad Prism Software.
Calculations: Specific Activity was determined by the amount of cGMP formed (nmoles) per mg of sGC per min. Enzyme “fold-change” was calculated by dividing Specific Activity for test compounds by Specific Activity of DMSO controls.

[2] = biological target: T1, soluble guanylate cyclase (sGC) (Homo sapiens (Human), UniProt Q02108+Q02153); assay: sGC-HEK-cGMP assay run with SNP incubation (HEK WC assay); format: cell-based; details: for Emax at 10 µM: read-out: HEK WC Assay (% Emax at 10 uM/with 10 uM SNP); for Emax at 30 µM: read-out: HEK WC Assay (% Emax at 30 uM/with 10 uM SNP); for HEK WC Assay (fold increase at 30 μM in the presence of 10 μM SNP): compound at 30 μM; for EC50: in the presence of 10 uM SNP
In short: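 EC50 values derive from concentration-response curves of intracellular cGMP in HEK293 cells, which express sGC endogenously. Compound and sodium nitroprusside were co-incubated 10 min at 37 °C after a 15-min 0.5 mM IBMX step, with 0.1 M HCl lysis and 1% DMSO vehicle.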

[3] = biological target: T1, soluble guanylate cyclase (sGC); assay: sGC-HEK-cGMP assay run in the absence of SNP (HEK WC assay); format: cell-based; details: for HEK WC Assay (fold increase at 10 μM): compound at 10 μM; for HEK WC Assay (fold increase at 10 μM) / HEK WC Assay (fold increase at 30 μM): no SNP, increase in the sGC receptor activity; for HEK WC Assay (fold increase at 30 μM) / HEK WC Assay (fold increase at 30 μM in the absence of SNP): compound at 30 μM
In short: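 Intracellular cGMP was measured by LC/MS, using a standard curve, in HEK293 cells treated with compound for 10 min at 37° C after a 15 min 0.5 mM IBMX pretreatment, with no SNP present. Lysis and quench used 0.1 M HCl. EC50 values came from concentration-response fits.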

[4] = read-out: HEK WC Assay (% Emax at 10 μM with 10 uM SNP)
[5] = read-out: HEK WC Assay (% Emax at 30 μM with 10 uM SNP)

T1 sequence (Q02153 whole entry): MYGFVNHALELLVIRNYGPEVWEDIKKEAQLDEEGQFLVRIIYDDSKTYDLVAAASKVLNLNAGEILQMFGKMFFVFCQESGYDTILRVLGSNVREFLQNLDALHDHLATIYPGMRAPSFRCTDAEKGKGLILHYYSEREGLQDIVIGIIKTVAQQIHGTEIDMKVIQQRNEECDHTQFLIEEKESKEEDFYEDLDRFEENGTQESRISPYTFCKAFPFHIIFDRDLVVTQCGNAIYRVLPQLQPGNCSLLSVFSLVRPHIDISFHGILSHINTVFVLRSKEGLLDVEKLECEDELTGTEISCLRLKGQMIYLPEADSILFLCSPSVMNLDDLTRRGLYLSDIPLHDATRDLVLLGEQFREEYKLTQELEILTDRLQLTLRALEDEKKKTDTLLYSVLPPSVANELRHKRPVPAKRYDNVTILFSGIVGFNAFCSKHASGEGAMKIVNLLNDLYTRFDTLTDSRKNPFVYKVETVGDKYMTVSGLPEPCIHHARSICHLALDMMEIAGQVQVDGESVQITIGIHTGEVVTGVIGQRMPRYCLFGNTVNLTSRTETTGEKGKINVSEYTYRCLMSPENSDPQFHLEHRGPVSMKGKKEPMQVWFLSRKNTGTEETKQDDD
T1 sequence (Q02108 whole entry): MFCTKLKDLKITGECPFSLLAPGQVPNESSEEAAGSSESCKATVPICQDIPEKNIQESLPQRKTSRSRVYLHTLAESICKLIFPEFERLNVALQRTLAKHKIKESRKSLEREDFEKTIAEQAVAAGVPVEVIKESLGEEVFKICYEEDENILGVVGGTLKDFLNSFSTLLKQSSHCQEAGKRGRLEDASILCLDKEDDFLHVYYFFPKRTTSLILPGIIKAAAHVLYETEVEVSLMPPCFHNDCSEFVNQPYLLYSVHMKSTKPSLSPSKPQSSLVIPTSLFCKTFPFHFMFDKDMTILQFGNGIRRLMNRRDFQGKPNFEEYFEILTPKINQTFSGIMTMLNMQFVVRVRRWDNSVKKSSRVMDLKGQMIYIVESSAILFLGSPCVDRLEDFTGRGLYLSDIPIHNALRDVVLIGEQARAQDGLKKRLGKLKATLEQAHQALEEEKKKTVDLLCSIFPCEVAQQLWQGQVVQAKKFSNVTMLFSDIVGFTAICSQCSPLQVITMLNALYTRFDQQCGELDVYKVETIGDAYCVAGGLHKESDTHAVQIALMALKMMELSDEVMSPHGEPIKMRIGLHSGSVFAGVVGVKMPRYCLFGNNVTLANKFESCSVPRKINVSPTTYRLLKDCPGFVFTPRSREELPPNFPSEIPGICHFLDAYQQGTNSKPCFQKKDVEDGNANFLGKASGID
Human soluble guanylate cyclase enzyme (hsGC), sequence (Q02153 whole entry): as the sequence (Q02153 whole entry) above
Human soluble guanylate cyclase enzyme (hsGC), sequence (Q02108 whole entry): as the sequence (Q02108 whole entry) above

Row | Compound | sGC Enzyme (specific activity at 10 μM) [1] | sGC Enzyme (fold increase at 10 μM without SNP) [1] | sGC Enzyme (specific activity at 30 μM) [1] | sGC Enzyme (fold increase at 30 μM without SNP) [1] | Emax at 10 µM [2] [%] | Emax at 30 µM [2] [%] | HEK WC Assay (fold increase at 10 μM) [3] | HEK WC Assay (fold increase at 30 μM) [3] | HEK WC Assay (fold increase at 30 μM in the presence of 10 μM SNP) [2] | EC50 [2] [µM] | Emax [2, 4] [%] | Emax [2, 5] [%] | HEK WC Assay (fold increase at 30 μM in the absence of SNP) [3]
1 | Fc1ccccc1Cn1nc(-c2ncccn2)cc1-c1cccnc1 [Compound I-10] | D (D = 200 to <500) | B (B = 2 to <5 fold increase) | D (D = 200 to <500) | B (B = 2 to <5 fold increase) | 0 to 10 | 0 to 10 | A (A = no increase to <1 fold increase) | A (A = no increase to <1 fold increase) | – | – | – | – | –
2 | Fc1ccccc1Cn1nc(-c2ccccn2)cc1-c1ccncc1 [Compound I-11] | – | A (A = no increase to <2 fold increase) | C (C = 100 to <200) | A (A = no increase to <2 fold increase) | 0 to 10 | 0 to 10 | A (A = no increase to <1 fold increase) | A (A = no increase to <1 fold increase) | – | – | – | – | –
3 | COc1cccc(-c2cc(-c3ncccn3)n(Cc3ccccc3F)n2)n1 [Compound I-15] | C (C = 100 to <200) | A (A = no increase to <2 fold increase) | C (C = 100 to <200) | A (A = no increase to <2 fold increase) | 0 to 10 | 0 to 10 | A (A = no increase to <1 fold increase) | A (A = no increase to <1 fold increase) | – | – | – | – | –
4 | Fc1ccccc1Cn1nc(-c2ncccn2)cc1-c1ccncc1 [Compound I-19] | – | A (A = no increase to <2 fold increase) | – | A (A = no increase to <2 fold increase) | – | – | A (A = no increase to <1 fold increase) | A (A = no increase to <1 fold increase) | – | – | – | – | –
5 | Fc1ccccc1Cn1nc(-c2ccccn2)cc1-c1cccnc1 [Compound I-20] | C (C = 100 to <200) | A (A = no increase to <2 fold increase) | D (D = 200 to <500) | A (A = no increase to <2 fold increase) | – | – | A (A = no increase to <1 fold increase) | A (A = no increase to <1 fold increase) | – | – | – | – | –
6 | Fc1ccccc1Cn1nc(-c2ccccn2)cc1-c1ccncn1 [Compound I-21] | C (C = 100 to <200) | A (A = no increase to <2 fold increase) | C (C = 100 to <200) | A (A = no increase to <2 fold increase) | 0 to 10 | 10 to 20 | A (A = no increase to <1 fold increase) | A (A = no increase to <1 fold increase) | – | – | – | – | –
7 | Fc1ccccc1Cn1nc(-c2ncccn2)cc1-c1cnc2ccoc2c1 [Compound I-32] | C (C = 100 to <200) | A (A = no increase to <2 fold increase) | D (D = 200 to <500) | A (A = no increase to <2 fold increase) | 0 to 10 | 0 to 10 | A (A = no increase to <1 fold increase) | A (A = no increase to <1 fold increase) | – | – | – | – | –
8 | Fc1ccccc1Cn1nc(-c2ccccn2)cc1-c1cnccn1 [Compound I-34] | B (B = 50 to <100) | A (A = no increase to <2 fold increase) | C (C = 100 to <200) | A (A = no increase to <2 fold increase) | 0 to 10 | 0 to 10 | A (A = no increase to <1 fold increase) | A (A = no increase to <1 fold increase) | – | – | – | – | –
9 | Nc1ccnc(-c2cc(-c3ccccn3)nn2Cc2ccccc2F)n1 [Compound I-41] | B (B = 50 to <100) | A (A = no increase to <2 fold increase) | C (C = 100 to <200) | B (B = 2 to <5 fold increase) | 0 to 10 | 0 to 10 | A (A = no increase to <1 fold increase) | A (A = no increase to <1 fold increase) | – | – | – | – | –
10 | N#Cc1cc(-c2ncccn2)nn1Cc1ccccc1F [Compound I-293] | – | – | – | – | – | – | – | – | C (C = 2 to <5 fold increase) | 40 to 60 | 20 to 40 | 20 to 40 | C (C = 2 to <5 fold increase)
11 | Oc1coc(-c2cc(-c3ncccn3)nn2Cc2ccccc2F)n1 [Compound I-295] | – | – | – | – | – | – | – | – | C (C = 2 to <5 fold increase) | 40 to 60 | 0 to 10 | 10 to 20 | B (B = 1 to <2 fold increase)
12 | Cc1cc(O)nc(-c2cc(-c3ccon3)n(Cc3ccccc3F)n2)n1 [Compound I-298] | – | – | – | – | – | – | – | – | C (C = 2 to <5 fold increase) | – | 10 to 20 | 20 to 40 | B (B = 1 to <2 fold increase)
13 | Cc1cc(Cl)nc(-c2cc(-c3ccon3)n(Cc3ccccc3F)n2)n1 [Compound I-299] | – | – | – | – | – | – | – | – | F (F = 20 to <30 fold increase) | < 20 | 60 to 80 | 60 to 80 | C (C = 2 to <5 fold increase)
14 | Oc1cc(-c2cccnc2)nc(-c2cc(-c3ccon3)n(Cc3ccccc3F)n2)n1 [Compound I-300] | – | – | – | – | – | – | – | – | B (B = 1 to <2 fold increase) | – | – | – | B (B = 1 to <2 fold increase)
15 | Fc1ccccc1Cn1nc(-c2ncccn2)cc1-c1ccco1 [Compound I-306] | – | – | – | – | – | – | – | – | E (E = 10 to <20 fold increase) | < 20 | 20 to 40 | 40 to 60 | D (D = 5 to <10 fold increase)
16 | Fc1ccccc1Cn1nc(-c2ncccn2)cc1C1CCC1 [Compound I-307] | – | – | – | – | – | – | – | – | C (C = 2 to <5 fold increase) | – | 0 to 10 | 0 to 10 | C (C = 2 to <5 fold increase)
17 | Fc1ccccc1Cn1nc(-c2cccc(Br)n2)cc1-c1ccccn1 [Compound I-308, 2-Bromo-6-(1-(2-fluorobenzyl)-5-(pyridin-2-yl)-1H-pyrazol-3-yl)pyridine] | – | – | – | – | – | – | – | – | B (B = 1 to <2 fold increase) | – | 0 to 10 | 0 to 10 | B (B = 1 to <2 fold increase)
18 | Fc1ccccc1Cn1nc(-c2ncccn2)cc1-c1ncco1 [Compound I-309] | – | – | – | – | – | – | – | – | E (E = 10 to <20 fold increase) | < 20 | 20 to 40 | 20 to 40 | B (B = 1 to <2 fold increase)
19 | Oc1ccc(-c2cc(-c3ccccn3)nn2Cc2ccccc2F)cc1 [Compound I-310] | – | – | – | – | – | – | – | – | – | – | 0 to 10 | 0 to 10 | B (B = 1 to <2 fold increase)
20 | Fc1ccccc1Cn1nc(-c2ccccn2)cc1-c1cncs1 [Compound I-311] | – | – | – | – | – | – | – | – | C (C = 2 to <5 fold increase) | – | 0 to 10 | 0 to 10 | B (B = 1 to <2 fold increase)
21 | Fc1ccccc1Cn1nc(-c2ccccn2)cc1-c1cccc(Br)n1 [Compound I-313, 2-Bromo-6-(1-(2-fluorobenzyl)-3-(pyridin-2-yl)-1H-pyrazol-5-yl)pyridine] | – | – | – | – | – | – | – | – | C (C = 2 to <5 fold increase) | – | 0 to 10 | 0 to 10 | C (C = 2 to <5 fold increase)
